Several values for one entry are separate records, joined by “and”; a condition that tells them apart may be missing. Equal entries are not always repeated.
Experiments:
DDR1 = target: T1, DDR1 (Homo sapiens, UniProt Q08345); experiment: KINOMEscan active-site competitive binding assay; details: slash = two separate measurements
T1 construct: purchased DiscoveRx (KINOMEscan service)

TRKC = target: T2, TRKC (Homo sapiens, UniProt Q16288); experiment: KINOMEscan active-site competitive binding assay; details: slash = two separate measurements
T2 construct: purchased DiscoveRx
T2 sequence (Q16288 32-839): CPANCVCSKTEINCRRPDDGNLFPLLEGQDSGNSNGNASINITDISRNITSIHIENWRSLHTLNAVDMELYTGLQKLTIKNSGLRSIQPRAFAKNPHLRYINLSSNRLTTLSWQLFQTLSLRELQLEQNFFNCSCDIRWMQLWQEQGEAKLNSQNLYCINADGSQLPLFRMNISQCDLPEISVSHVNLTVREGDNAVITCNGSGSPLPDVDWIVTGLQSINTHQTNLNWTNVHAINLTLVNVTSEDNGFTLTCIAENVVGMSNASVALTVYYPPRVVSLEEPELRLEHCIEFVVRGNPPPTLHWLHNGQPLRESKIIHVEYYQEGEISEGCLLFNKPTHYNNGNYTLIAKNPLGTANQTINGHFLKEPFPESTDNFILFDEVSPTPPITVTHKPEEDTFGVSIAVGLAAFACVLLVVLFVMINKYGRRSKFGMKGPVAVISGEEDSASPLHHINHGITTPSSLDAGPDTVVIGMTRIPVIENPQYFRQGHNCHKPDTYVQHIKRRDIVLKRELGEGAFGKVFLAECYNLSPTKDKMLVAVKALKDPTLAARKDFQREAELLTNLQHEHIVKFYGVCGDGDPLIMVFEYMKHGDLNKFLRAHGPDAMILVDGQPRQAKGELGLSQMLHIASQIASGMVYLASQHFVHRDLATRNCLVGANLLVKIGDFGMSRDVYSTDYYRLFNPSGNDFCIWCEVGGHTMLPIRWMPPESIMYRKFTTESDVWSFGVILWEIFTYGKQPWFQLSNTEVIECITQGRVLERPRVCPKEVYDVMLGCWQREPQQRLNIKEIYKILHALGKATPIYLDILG

HuLECs = experiment: VEGF‐C‐induced migration of HuLECs (scratch assay); type: cell-based, human; details: 100 nmol/L, 40 h
Protocol: A sterile pipette tip was then used to scratch the cell layers, and images were taken after continued incubation for 40 h.

PDGFRB = target: T3, PDGFRB (Homo sapiens, UniProt P09619); experiment: KINOMEscan active-site competitive binding assay; details: slash = two separate measurements
T3 construct: purchased DiscoveRx

KIT^V559D = target: T4, KIT^V559D (Homo sapiens, UniProt P10721, V559D); experiment: KINOMEscan active-site competitive binding assay
T4 construct: purchased DiscoveRx (KINOMEscan service)

KIT^V559D,T670I = target: T5, KIT^V559D,T670I (Homo sapiens, UniProt P10721, T670I/V559D); experiment: KINOMEscan active-site competitive binding assay
T5 construct: purchased DiscoveRx (KINOMEscan service)

RET^V804M = target: T6, RET^V804M (Homo sapiens, UniProt P07949, V804M); experiment: KINOMEscan active-site competitive binding assay
T6 construct: purchased DiscoveRx (KINOMEscan service)

PDGFRα = target: T7, PDGFRα (Homo sapiens, UniProt P16234); experiment: PDGFRA phosphorylation assay, PathHunter cell line U2OS/PDGFRA; type: cell-based; details: U2OS/PDGFRA cells; 0.1% bovine serum albumin; read-out: Mean ± SD IC50
T7 construct: host or cells: PathHunter cell line (U2OS/PDGFRA)
Protocol: VEGFR2 assays were performed in murine fibroblasts (NIH‐3T3) in the presence of 0.1 mg/mL human serum albumin. […] Substrate phosphorylation was determined from total cell lysates by enzyme‐linked immunosorbent assay. In addition, an FGFR phosphorylation assay was performed using a human gastric carcinoma cell line (SNU‐16), with pFGFR assessed by western blot. The PDGFRA phosphorylation assay was performed by DiscoverRx using the DiscoverRx PathHunter cell line, modified to express PDGFRA. […] The assay signal was generated using a detection reagent cocktail and measured by chemoluminescence 13. Both the PDGFRA and FGFR assays were performed in the presence of 0.1 mg/mL BSA.

RAF1 = target: T8, RAF1 (Homo sapiens, UniProt P04049); experiment: KINOMEscan active-site competitive binding assay; details: slash = two separate measurements
T8 construct: purchased DiscoveRx
T8 sequence (P04049 whole entry): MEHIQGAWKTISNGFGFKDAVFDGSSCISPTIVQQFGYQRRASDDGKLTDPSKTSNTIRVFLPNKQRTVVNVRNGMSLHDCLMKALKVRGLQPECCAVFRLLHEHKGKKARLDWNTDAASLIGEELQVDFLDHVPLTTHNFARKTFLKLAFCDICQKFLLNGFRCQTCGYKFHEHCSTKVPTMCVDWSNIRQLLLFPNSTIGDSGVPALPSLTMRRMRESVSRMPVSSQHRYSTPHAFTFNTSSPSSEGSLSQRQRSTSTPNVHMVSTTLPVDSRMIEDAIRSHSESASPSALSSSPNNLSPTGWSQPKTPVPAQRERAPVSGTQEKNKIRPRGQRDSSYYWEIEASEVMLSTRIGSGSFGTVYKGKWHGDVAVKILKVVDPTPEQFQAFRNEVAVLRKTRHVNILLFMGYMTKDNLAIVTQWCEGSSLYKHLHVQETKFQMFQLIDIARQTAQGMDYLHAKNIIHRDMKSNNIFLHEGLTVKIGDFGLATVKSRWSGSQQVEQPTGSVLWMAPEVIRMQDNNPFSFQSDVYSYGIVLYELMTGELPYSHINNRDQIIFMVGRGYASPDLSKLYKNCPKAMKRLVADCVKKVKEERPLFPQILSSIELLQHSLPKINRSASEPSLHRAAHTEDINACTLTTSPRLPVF

BRAF = target: T9, BRAF (Homo sapiens, UniProt P15056); experiment: KINOMEscan active-site competitive binding assay; details: slash = two separate measurements
T9 construct: purchased DiscoveRx (KINOMEscan service)

SLK = target: T10, SLK (Homo sapiens, UniProt Q9H2G2); experiment: KINOMEscan active-site competitive binding assay; details: slash = two separate measurements
T10 construct: purchased DiscoveRx
T10 sequence (Q9H2G2 whole entry): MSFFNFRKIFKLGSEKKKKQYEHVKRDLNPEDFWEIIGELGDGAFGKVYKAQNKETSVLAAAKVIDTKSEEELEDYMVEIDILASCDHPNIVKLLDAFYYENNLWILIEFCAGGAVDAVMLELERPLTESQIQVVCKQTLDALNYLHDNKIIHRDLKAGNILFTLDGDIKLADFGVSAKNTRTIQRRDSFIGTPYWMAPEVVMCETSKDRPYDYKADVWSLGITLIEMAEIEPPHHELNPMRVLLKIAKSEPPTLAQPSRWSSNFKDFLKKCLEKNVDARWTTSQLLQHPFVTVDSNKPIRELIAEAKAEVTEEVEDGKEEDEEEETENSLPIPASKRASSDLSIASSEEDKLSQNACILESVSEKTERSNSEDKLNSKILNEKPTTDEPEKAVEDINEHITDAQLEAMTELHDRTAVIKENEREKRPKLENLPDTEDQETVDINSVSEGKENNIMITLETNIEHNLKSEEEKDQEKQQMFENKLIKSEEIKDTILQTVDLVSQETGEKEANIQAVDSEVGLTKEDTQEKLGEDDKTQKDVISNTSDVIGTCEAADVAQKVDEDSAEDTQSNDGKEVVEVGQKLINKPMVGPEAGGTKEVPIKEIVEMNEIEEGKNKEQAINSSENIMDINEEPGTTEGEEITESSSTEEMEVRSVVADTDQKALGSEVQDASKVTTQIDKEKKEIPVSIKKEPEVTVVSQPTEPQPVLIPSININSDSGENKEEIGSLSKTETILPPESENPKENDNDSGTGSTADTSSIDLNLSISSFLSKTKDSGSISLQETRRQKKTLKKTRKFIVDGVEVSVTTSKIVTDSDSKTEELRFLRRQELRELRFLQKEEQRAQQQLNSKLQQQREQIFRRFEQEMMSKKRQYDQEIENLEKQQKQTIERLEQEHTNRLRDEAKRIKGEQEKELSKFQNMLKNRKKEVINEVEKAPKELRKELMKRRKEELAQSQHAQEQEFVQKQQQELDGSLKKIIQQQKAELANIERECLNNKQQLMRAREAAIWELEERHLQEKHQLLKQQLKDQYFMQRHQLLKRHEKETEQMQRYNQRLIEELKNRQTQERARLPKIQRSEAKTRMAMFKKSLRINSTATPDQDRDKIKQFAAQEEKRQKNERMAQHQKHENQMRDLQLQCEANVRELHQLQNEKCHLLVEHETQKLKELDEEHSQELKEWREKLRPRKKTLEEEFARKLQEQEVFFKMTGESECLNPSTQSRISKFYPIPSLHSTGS

FLT3^N841I = target: T11, FLT3^N841I (Homo sapiens, UniProt P36888, N841I); experiment: KINOMEscan active-site competitive binding assay
T11 construct: purchased DiscoveRx

KIT^D816V = target: T12, KIT^D816V (Homo sapiens, UniProt P10721, D816V); experiment: KINOMEscan active-site competitive binding assay
T12 construct: purchased DiscoveRx

RET^M918T = target: T13, RET^M918T (Homo sapiens, UniProt P07949, M918T); experiment: KINOMEscan active-site competitive binding assay
T13 construct: purchased DiscoveRx (KINOMEscan service)

FLT1 = target: T14, FLT1 (Homo sapiens, UniProt P17948); experiment: KINOMEscan active-site competitive binding assay; details: slash = two separate measurements
T14 construct: purchased DiscoveRx (KINOMEscan service)

TIE‐2 [1] = target: T15, TIE‐2 (Homo sapiens, UniProt Q02763); experiment: KINOMEscan active-site competitive binding assay; set-up: purchased DiscoveRx (KINOMEscan service); details: data not shown
T15 sequence (Q02763 23-1124): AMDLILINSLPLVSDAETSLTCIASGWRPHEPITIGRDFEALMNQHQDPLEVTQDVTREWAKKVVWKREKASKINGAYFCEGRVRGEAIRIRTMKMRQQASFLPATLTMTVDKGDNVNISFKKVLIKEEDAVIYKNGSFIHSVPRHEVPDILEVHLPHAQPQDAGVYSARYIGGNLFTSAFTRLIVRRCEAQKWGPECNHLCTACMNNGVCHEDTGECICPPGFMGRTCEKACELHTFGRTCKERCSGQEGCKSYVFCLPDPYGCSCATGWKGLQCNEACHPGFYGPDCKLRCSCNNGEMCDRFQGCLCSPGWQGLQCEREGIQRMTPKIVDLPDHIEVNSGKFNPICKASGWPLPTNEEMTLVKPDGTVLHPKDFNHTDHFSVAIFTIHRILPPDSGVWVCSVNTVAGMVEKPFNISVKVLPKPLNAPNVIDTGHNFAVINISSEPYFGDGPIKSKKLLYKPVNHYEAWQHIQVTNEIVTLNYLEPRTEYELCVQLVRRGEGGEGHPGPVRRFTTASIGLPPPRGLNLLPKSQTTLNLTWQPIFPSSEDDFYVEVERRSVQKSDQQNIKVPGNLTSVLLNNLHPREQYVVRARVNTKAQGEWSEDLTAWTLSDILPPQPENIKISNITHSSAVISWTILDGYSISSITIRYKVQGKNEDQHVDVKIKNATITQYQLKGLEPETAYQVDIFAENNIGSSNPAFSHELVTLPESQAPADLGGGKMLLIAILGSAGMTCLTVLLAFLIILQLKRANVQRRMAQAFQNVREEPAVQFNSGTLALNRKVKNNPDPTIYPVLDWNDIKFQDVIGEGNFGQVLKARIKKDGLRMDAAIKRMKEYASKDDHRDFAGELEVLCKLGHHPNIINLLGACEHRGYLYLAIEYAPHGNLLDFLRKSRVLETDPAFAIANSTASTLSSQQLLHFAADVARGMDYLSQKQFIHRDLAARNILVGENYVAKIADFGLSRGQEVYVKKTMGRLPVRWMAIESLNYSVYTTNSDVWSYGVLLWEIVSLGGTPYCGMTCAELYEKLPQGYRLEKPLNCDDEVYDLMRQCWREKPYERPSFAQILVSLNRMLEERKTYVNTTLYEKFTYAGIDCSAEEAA

p38-alpha = target: T16, p38-alpha (Homo sapiens, UniProt Q16539); experiment: KINOMEscan active-site competitive binding assay; details: slash = two separate measurements
T16 construct: purchased DiscoveRx (KINOMEscan service)
T16 sequence (Q16539 whole entry): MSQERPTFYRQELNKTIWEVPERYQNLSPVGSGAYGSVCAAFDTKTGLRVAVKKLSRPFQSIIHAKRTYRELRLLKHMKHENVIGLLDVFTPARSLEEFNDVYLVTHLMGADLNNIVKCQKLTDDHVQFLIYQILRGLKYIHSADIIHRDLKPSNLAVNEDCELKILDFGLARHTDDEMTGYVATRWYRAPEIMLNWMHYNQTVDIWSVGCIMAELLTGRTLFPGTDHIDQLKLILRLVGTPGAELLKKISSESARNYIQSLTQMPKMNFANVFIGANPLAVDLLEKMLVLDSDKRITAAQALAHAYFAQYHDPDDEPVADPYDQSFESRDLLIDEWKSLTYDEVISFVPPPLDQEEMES

KIT = KIT (Homo sapiens, UniProt P10721); experiment: KINOMEscan active-site competitive binding assay; set-up: purchased DiscoveRx (KINOMEscan service); details: slash = two separate measurements
BRAF^V600E = BRAF^V600E (Homo sapiens, UniProt P15056, V600E); experiment: Cellular kinase phosphorylation assay, RAT‐1/BRAF^V600E; type: cell-based; set-up: host or cells: RAT-1 rat fibroblasts; details: RAT‐1/BRAF^V600E cells; without serum; read-out: Mean ± SD IC50
FLT4 = target: T17, FLT4 (Homo sapiens, UniProt P35916); experiment: KINOMEscan active-site competitive binding assay; details: slash = two separate measurements
T17 construct: purchased DiscoveRx (KINOMEscan service)

TIE‐2 [2] = target: T15, TIE‐2; experiment: Cellular kinase phosphorylation assay, CHO/TIE2; type: cell-based; details: CHO/TIE2 cells; without serum; brackets = number of experiments; read-out: Mean ± SD IC50
MUSK = target: T18, MUSK (Homo sapiens, UniProt O15146); experiment: KINOMEscan active-site competitive binding assay; details: slash = two separate measurements
T18 construct: purchased DiscoveRx (KINOMEscan service)
T18 sequence (O15146 24-869): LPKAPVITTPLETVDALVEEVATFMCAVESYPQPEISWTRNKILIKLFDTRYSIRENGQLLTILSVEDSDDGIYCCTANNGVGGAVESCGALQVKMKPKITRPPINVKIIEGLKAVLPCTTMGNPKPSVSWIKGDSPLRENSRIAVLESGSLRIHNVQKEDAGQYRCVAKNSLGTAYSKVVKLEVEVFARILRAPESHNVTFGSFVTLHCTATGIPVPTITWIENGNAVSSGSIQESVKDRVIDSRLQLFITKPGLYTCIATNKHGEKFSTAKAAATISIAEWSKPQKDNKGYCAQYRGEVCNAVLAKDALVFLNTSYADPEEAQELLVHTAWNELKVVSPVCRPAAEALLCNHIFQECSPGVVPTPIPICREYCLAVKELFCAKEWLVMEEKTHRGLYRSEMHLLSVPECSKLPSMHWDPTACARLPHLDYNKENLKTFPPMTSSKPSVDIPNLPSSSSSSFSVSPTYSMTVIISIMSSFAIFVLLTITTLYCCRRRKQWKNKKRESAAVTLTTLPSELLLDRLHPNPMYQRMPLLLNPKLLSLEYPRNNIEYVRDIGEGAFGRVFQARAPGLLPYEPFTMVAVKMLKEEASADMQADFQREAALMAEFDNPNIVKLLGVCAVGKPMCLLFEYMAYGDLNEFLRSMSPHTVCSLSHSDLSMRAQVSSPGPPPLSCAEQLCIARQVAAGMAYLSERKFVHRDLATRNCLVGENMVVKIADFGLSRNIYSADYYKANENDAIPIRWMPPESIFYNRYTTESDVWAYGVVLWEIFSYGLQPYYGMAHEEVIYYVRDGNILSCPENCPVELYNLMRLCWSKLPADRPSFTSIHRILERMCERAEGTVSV

KIT^L576P = target: T19, KIT^L576P (Homo sapiens, UniProt P10721, L576P); experiment: KINOMEscan active-site competitive binding assay
T19 construct: purchased DiscoveRx

T1 sequence (Q08345 19-913): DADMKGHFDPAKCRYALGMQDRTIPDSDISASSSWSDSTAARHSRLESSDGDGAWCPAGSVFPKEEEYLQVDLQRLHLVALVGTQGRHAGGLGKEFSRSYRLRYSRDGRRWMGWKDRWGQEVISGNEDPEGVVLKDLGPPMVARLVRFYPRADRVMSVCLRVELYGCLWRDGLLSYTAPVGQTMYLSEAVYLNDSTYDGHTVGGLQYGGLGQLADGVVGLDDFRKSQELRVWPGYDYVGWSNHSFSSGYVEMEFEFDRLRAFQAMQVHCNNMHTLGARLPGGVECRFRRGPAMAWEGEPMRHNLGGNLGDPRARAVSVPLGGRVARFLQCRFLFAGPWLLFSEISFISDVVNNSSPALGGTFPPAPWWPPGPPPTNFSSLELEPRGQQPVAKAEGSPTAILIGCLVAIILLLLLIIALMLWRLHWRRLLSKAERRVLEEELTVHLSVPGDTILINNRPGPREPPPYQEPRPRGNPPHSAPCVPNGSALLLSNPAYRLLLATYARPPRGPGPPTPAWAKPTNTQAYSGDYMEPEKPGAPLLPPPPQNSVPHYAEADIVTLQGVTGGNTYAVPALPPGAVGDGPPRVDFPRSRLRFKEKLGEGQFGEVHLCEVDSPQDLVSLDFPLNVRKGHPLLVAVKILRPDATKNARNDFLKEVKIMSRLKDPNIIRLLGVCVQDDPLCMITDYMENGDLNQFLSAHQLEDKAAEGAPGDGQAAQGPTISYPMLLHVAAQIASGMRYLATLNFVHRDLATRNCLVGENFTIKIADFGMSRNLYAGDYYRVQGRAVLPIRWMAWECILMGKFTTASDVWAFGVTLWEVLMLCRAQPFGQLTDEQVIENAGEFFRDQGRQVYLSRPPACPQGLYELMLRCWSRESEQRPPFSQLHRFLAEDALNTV

## CNC(=O)c1cc(Oc2ccc(NC(=O)Nc3ccc(Cl)c(C(F)(F)F)c3)c(F)c2)cc[n+]1[O-] [M‐2]
DDR1
  Kd: 0.5 nM
TRKC
  Kd: 15 nM
HuLECs
  Inhibition of VEGF‐C‐induced migration: inhibited
PDGFRB
  Kd: 11 nM
KIT^V559D
  Kd: 12 nM
KIT^V559D,T670I
  Kd: 12 nM
RET^V804M
  Kd: 20 nM
PDGFRα
  IC50: 44 nM
RAF1
  Kd: 130 nM
BRAF
  Kd: 24 nM
SLK
  Kd: 64 nM
FLT3^N841I
  Kd: 34 nM
KIT^D816V
  Kd: 300 nM
RET^M918T
  Kd: 7.4 nM
FLT1
  Kd: 23 nM
TIE‐2 [1]
  Kd: 790 nM
p38-alpha
  Kd: 17 nM
KIT
  Kd: 9.8 nM
BRAF^V600E
  IC50: 21 nM
FLT4
  Kd: 46 nM
TIE‐2 [2]
  IC50: 66 ± 35 nM
MUSK
  Kd: 140 nM
KIT^L576P
  Kd: 17 nM

## NC(=O)c1cc(Oc2ccc(NC(=O)Nc3ccc(Cl)c(C(F)(F)F)c3)c(F)c2)cc[n+]1[O-] [M‐5]
DDR1
  Kd: 0.4 nM
TRKC
  Kd: 56 nM
HuLECs
  Inhibition of VEGF‐C‐induced migration: inhibited
PDGFRB
  Kd: 11 nM
KIT^V559D
  Kd: 9.6 nM
KIT^V559D,T670I
  Kd: 11 nM
RET^V804M
  Kd: 25 nM
PDGFRα
  IC50: 61 nM
RAF1
  Kd: 66 nM
BRAF
  Kd: 17 nM
SLK
  Kd: 100 nM
FLT3^N841I
  Kd: 23 nM
KIT^D816V
  Kd: 310 nM
RET^M918T
  Kd: 5.8 nM
FLT1
  Kd: 17 nM
TIE‐2 [1]
  Kd: 1200 nM
p38-alpha
  Kd: 48 nM
KIT
  Kd: 5.8 nM
BRAF^V600E
  IC50: 27 nM
FLT4
  Kd: 40 nM
TIE‐2 [2]
  IC50: 180 nM
MUSK
  Kd: 140 nM
KIT^L576P
  Kd: 9.1 nM

## CNC(=O)c1cc(Oc2ccc(NC(=O)Nc3ccc(Cl)c(C(F)(F)F)c3)c(F)c2)ccn1 [Regorafenib, reference compound]
DDR1
  Kd: 0.9 nM and 0.8 nM
TRKC
  Kd: 180 nM and 280 nM
SLK
  Kd: 120 nM and 98 nM
p38-alpha
  Kd: 58 nM and 48 nM
MUSK
  Kd: 68 nM and 67 nM

Source: publication PMC5119973 (Cancer Medicine, 2016)
